Reference: patent US5138069A (E. I. Du Pont de Nemours and Company, priority 1988, dated 1992)
Where two headings read alike, the source gives them in different places.

Tests used:
Renal Hypertensive Rats = assay: Antihypertensive effects in renal hypertensive rats; type: in vivo; details: Rattus norvegicus; for minimal effective dose at 10 mg/kg / minimal effective dose at 100 mg/kg: Table 25; for minimal effective dose at 10 mg/kg / minimal effective dose at 3 mg/kg: intravenous; for minimal effective dose at 10 mg/kg: 10 mg/kg or less; for minimal effective dose at 100 mg/kg / minimal effective dose at 30 mg/kg: oral; for minimal effective dose at 100 mg/kg: 100 mg/kg or less; for minimal effective dose at 3 mg/kg / minimal effective dose at 30 mg/kg: Table 26
Summary of the method: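 Renal hypertensive rats (renin-driven AII elevation) dosed orally at 100 mg/kg and/or i.v. via jugular cannula at 10 mg/kg; a second set used 30 mg/kg oral and 3 mg/kg i.v. Arterial pressure recorded continuously via carotid cannula and compared with pretreatment levels.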

AII receptor = assay: Angiotensin II receptor binding (displacement of 3H-AII); details: read-out: Angiotensin II Receptor Binding IC50, rat adrenal cortical microsomes, 2 nM 3H-AII, 1 hour, room temperature
Description: The assay was carried out according to the method described by [Glossmann et al., J. Biol. Chem., 249, 825 (1974)], but with some modifications. The reaction mixture contained rat adrenal cortical microsomes (source of AII receptor) in Tris buffer and 2 nM of ^3 H-AII with or without potential AII antagonist. This mixture was incubated for 1 hour at room temperature and the reaction was subsequently terminated by rapid filtration and rinsing through glass micro-fibre filter. Receptor-bound ^3 H-AII trapped in filter was quantitated by scintillation counting.
Compounds listed in Table 26 were tested in the same manner as described for Table 25, except that in the test for antihypertensive effects in renal hypertensive rats, the compounds were administered orally at 30 mg/kg and intravenously at 3 mg/kg.

[1] = Table 25, tested as sodium salt

SMILES | minimal effective dose at 100 mg/kg (Renal Hypertensive Rats) | IC50 (AII receptor; Table 25) | minimal effective dose at 10 mg/kg (Renal Hypertensive Rats) | other results
CCCCc1nc(C#N)c(C#N)n1Cc1ccc(NC(=O)c2ccccc2NS(=O)(=O)C(F)(F)F)cc1 [Example 75, 2-Butyl-4,5-dicyano-1-[4-((N-trifluoromethanesulfonyl)anthranilamido)-benzyl]imidazole] |  |  |  | minimal effective dose at 10 mg/kg (Renal Hypertensive Rats; tested as sodium salt): < 10 mg/kg; minimal effective dose at 100 mg/kg (Renal Hypertensive Rats; tested as sodium salt): < 100 mg/kg; IC50 (AII receptor; [1]): 7600 nM
CCCCc1nc(Cl)c(CC(=O)OC)n1Cc1ccc(N(Cc2ccccc2)C(=O)c2ccccc2NS(=O)(=O)C(F)(F)F)cc1 [Example 76, Methyl 2-butyl-1-[4-(N-benzyl-N-(2-(trifluoromethanesulfonamido)benzoyl)-amino)benzyl]-4-chloroimidazole-5-acetate] |  |  |  | minimal effective dose at 10 mg/kg (Renal Hypertensive Rats; tested as sodium salt): < 10 mg/kg; minimal effective dose at 100 mg/kg (Renal Hypertensive Rats; tested as sodium salt): > 100 mg/kg; IC50 (AII receptor; [1]): 2700 nM
CCCCc1nc(Cl)c(COC)n1Cc1ccc(N(C)C(=O)c2c(Cl)ccc(Cl)c2C(=O)O)cc1 [Example 77, 2-n-Butyl-4-chloro-5-methoxymethyl-1-[4-(N-methyl-2-carboxy-3,6-dichlorobenzamid)benzyl]imidazole] |  |  |  | minimal effective dose at 10 mg/kg (Renal Hypertensive Rats; tested as sodium salt): > 100 mg/kg; minimal effective dose at 100 mg/kg (Renal Hypertensive Rats; tested as sodium salt): > 100 mg/kg; IC50 (AII receptor; [1]): 5700 nM
CCCCc1nc(Cl)c(COC)n1Cc1ccc(C(=O)Nc2ccccc2C(=O)O)cc1 [Example 78] |  |  |  | minimal effective dose at 10 mg/kg (Renal Hypertensive Rats; tested as sodium salt): < 10 mg/kg; minimal effective dose at 100 mg/kg (Renal Hypertensive Rats; tested as sodium salt): < 100 mg/kg; IC50 (AII receptor; [1]): 8000 nM
CCCCc1nc(Cl)c(COC)n1Cc1ccc(C(=O)Nc2nnn[nH]2)cc1 [Example 79] |  |  |  | minimal effective dose at 10 mg/kg (Renal Hypertensive Rats; tested as sodium salt): < 10 mg/kg; minimal effective dose at 100 mg/kg (Renal Hypertensive Rats; tested as sodium salt): > 100 mg/kg; IC50 (AII receptor; [1]): 500 nM
CCCCc1nc(Cl)c(COC)n1Cc1ccc(C(=O)Nc2cccc(C)c2C(=O)O)cc1 [Example 80] |  |  |  | minimal effective dose at 10 mg/kg (Renal Hypertensive Rats; tested as sodium salt): < 10 mg/kg; minimal effective dose at 100 mg/kg (Renal Hypertensive Rats; tested as sodium salt): < 100 mg/kg; IC50 (AII receptor; [1]): 500 nM
CCCCc1nc(Cl)c(COC)n1Cc1ccc(C(=O)Nc2ccccc2-c2nnn[nH]2)cc1 [Example 81] |  |  |  | minimal effective dose at 10 mg/kg (Renal Hypertensive Rats; tested as sodium salt): > 100 mg/kg; minimal effective dose at 100 mg/kg (Renal Hypertensive Rats; tested as sodium salt): > 100 mg/kg; IC50 (AII receptor; [1]): 570 nM
CCCCc1nc(Cl)c(CO)n1Cc1ccc(-c2cccc(C(=O)OCOC(=O)C(C)(C)C)c2)cc1 [Example 88, 1-[(3'-Trimethylacetoxymethoxycarbonylbiphenyl-4-yl)methyl]-2-butyl-4-chloro-5-hydroxymethylimidazole] | < 100 mg/kg | 1300 nM |  | 
CCCCc1nc(Cl)c(COC)n1Cc1ccc(-c2ccccc2-c2nnn[nH]2)cc1 [Example 90] |  |  |  | minimal effective dose at 10 mg/kg (Renal Hypertensive Rats; tested as sodium salt): < 10 mg/kg; minimal effective dose at 100 mg/kg (Renal Hypertensive Rats; tested as sodium salt): < 100 mg/kg; IC50 (AII receptor; [1]): 20 nM
CCCCc1nc([N+](=O)[O-])c(CO)n1Cc1ccc(-c2ccccc2C(=O)O)cc1 [Example 91, 1-[(2'-carboxybiphenyl-4-yl)-methyl]-2-butyl-5-hydroxymethyl-4-nitroimidazole] | > 100 mg/kg | 260 nM | < 10 mg/kg | 
CCCCc1nc(C(F)(F)F)c(CO)n1Cc1ccc(-c2ccccc2C(=O)O)cc1 [Example 92, 1-[(2'-carboxybiphenyl-4-yl)-methyl]-2-butyl-5-hydroxymethyl-4-trifluoromethylimidazole] |  | 62 nM | < 10 mg/kg | 
CCCCc1nc(C(F)(F)C(F)(F)F)c(CO)n1Cc1ccc(-c2ccccc2C(=O)O)cc1 [Example 92A, 1-[(2'-carboxybiphenyl-4-yl)methyl]-2-butyl-5-hydroxymethyl-4-pentafluoroethylimidazole] |  |  |  | minimal effective dose at 3 mg/kg (Renal Hypertensive Rats): < 3 mg/kg; minimal effective dose at 30 mg/kg (Renal Hypertensive Rats): < 30 mg/kg; IC50 (AII receptor; Table 26): 40 nM
CCCCc1nc(Cl)c(CO)n1Cc1ccc(-c2ccccc2C(=O)O)cc1 [Example 94, 2-butyl-1-[(2'-carboxybiphenyl-4-yl)methyl]-4-chloro-5-hydroxymethylimidazole] | < 100 mg/kg | 280 nM | < 10 mg/kg | 
CCCCc1nc(CO)c(Cl)n1Cc1ccc(-c2ccccc2C(=O)O)cc1 [Example 95] | > 100 mg/kg | 1200 nM | < 10 mg/kg | 
CCCCc1ncc(CO)n1Cc1ccc(-c2ccccc2C(=O)O)cc1 [Example 97] | > 100 mg/kg | 270 nM | < 10 mg/kg | 
CCCCc1nc(Cl)c(COC(C)C)n1Cc1ccc(-c2ccccc2C(=O)O)cc1 [Example 99] | < 100 mg/kg | 90 nM | < 10 mg/kg | 
CCCCc1nc(Br)c(CO)n1Cc1ccc(-c2ccccc2C(=O)O)cc1 [Example 100] | < 100 mg/kg | 90 nM | < 10 mg/kg | 
CCCCc1nc(I)c(CO)n1Cc1ccc(-c2ccccc2C(=O)O)cc1 [Example 102] | < 100 mg/kg | 61 nM | < 10 mg/kg | 
CCCCc1nc(CO)c(I)n1Cc1ccc(-c2ccccc2C(=O)O)cc1 [Example 105] | < 100 mg/kg | 680 nM | < 10 mg/kg | 

SMILES | minimal effective dose at 100 mg/kg (Renal Hypertensive Rats) | IC50 (AII receptor; Table 25) | minimal effective dose at 10 mg/kg (Renal Hypertensive Rats) | other results
CCCCc1nc(Cl)c(CO)n1Cc1ccc(-c2cccc(C)c2C(=O)O)cc1 [Example 106] | < 100 mg/kg | 1900 nM | < 10 mg/kg | 
CCCc1nc(Cl)c(CO)n1Cc1ccc(-c2ccccc2C(=O)O)cc1 [Example 108] | < 100 mg/kg | 160 nM | < 10 mg/kg | 
CCCCCc1nc(Cl)c(CO)n1Cc1ccc(-c2ccccc2C(=O)O)cc1 [Example 109] | < 100 mg/kg | 980 nM | < 10 mg/kg | 
CCCc1nc(Cl)c(C=O)n1Cc1ccc(-c2ccccc2-c2nnn[nH]2)cc1 [Example 114, 2-Propyl-4-chloro-1-[(2'-(1H-tetrazol-5-yl)biphenyl-4-yl)methyl]imidazole-5-carboxaldehyde] | < 100 mg/kg | 50 nM | < 10 mg/kg | 
CCCCc1nc(Cl)c(CC(=O)O)n1Cc1ccc(-c2ccccc2C(=O)O)cc1 [Example 115] | < 100 mg/kg | 430 nM | < 10 mg/kg | 
CCCCc1nc(Cl)c(C(C)C(=O)O)n1Cc1ccc(-c2ccccc2C(=O)O)cc1 (stereo not shown) [Example 116] | < 100 mg/kg | 260 nM | < 10 mg/kg | 
CCCCc1nc(CO)c([N+](=O)[O-])n1Cc1ccc(-c2ccccc2C(=O)O)cc1 [Example 117] | < 100 mg/kg | 890 nM | < 10 mg/kg | 
CCCCc1nc(CO)c(Cl)n1Cc1ccc(-c2ccccc2-c2nn[nH]n2)cc1 [Example 118] | < 100 mg/kg | 89 nM | < 10 mg/kg | 
CCCCSc1ncc(CO)n1Cc1ccc(-c2ccccc2C(=O)O)cc1 [Example 123] | > 100 mg/kg | 5600 nM | < 10 mg/kg | 
CCCc1nc(C(F)(F)F)c(CO)n1Cc1ccc(-c2ccccc2C(=O)O)cc1 [Example 124A] |  |  |  | minimal effective dose at 3 mg/kg (Renal Hypertensive Rats): < 3 mg/kg; minimal effective dose at 30 mg/kg (Renal Hypertensive Rats): < 30 mg/kg; IC50 (AII receptor; Table 26): 130 nM
CCCc1nc(C(F)(F)C(F)(F)F)c(CO)n1Cc1ccc(-c2ccccc2C(=O)O)cc1 [Example 124B] |  |  |  | minimal effective dose at 3 mg/kg (Renal Hypertensive Rats): < 3 mg/kg; minimal effective dose at 30 mg/kg (Renal Hypertensive Rats): < 30 mg/kg; IC50 (AII receptor; Table 26): 50 nM
CCCc1nc(C(F)(F)F)c(CO)n1Cc1ccc(-c2ccccc2-c2nn[nH]n2)cc1 [Example 124D] |  |  |  | minimal effective dose at 3 mg/kg (Renal Hypertensive Rats): < 3 mg/kg; minimal effective dose at 30 mg/kg (Renal Hypertensive Rats): < 30 mg/kg; IC50 (AII receptor; Table 26): 6 nM
CCCCc1nc(C(F)(F)C(F)(F)F)c(CO)n1Cc1ccc(-c2ccccc2-c2nn[nH]n2)cc1 [Example 124E] |  |  |  | minimal effective dose at 3 mg/kg (Renal Hypertensive Rats): < 3 mg/kg; minimal effective dose at 30 mg/kg (Renal Hypertensive Rats): < 30 mg/kg; IC50 (AII receptor; Table 26): 7 nM
CCCc1nc(C(F)(F)C(F)(F)C(F)(F)F)c(CO)n1Cc1ccc(-c2ccccc2C(=O)O)cc1 [Example 124G] |  |  |  | minimal effective dose at 3 mg/kg (Renal Hypertensive Rats): < 3 mg/kg; minimal effective dose at 30 mg/kg (Renal Hypertensive Rats): < 30 mg/kg; IC50 (AII receptor; Table 26): 74 nM
CCCc1nc(C(F)(F)C(F)(F)C(F)(F)C(F)(F)F)c(CO)n1Cc1ccc(-c2ccccc2C(=O)O)cc1 [Example 124H] |  |  |  | minimal effective dose at 3 mg/kg (Renal Hypertensive Rats): < 3 mg/kg; minimal effective dose at 30 mg/kg (Renal Hypertensive Rats): < 30 mg/kg; IC50 (AII receptor; Table 26): 290 nM
CCCc1nc(C(F)(F)C(F)(F)C(F)(F)C(F)(F)C(F)(F)C(F)(F)F)c(CO)n1Cc1ccc(-c2ccccc2C(=O)O)cc1 [Example 124I] |  |  |  | minimal effective dose at 3 mg/kg (Renal Hypertensive Rats): < 3 mg/kg; minimal effective dose at 30 mg/kg (Renal Hypertensive Rats): > 30 mg/kg; IC50 (AII receptor; Table 26): 2500 nM
CCCc1nc(-c2c(F)c(F)c(F)c(F)c2F)c(CO)n1Cc1ccc(-c2ccccc2C(=O)O)cc1 [Example 124J] |  |  |  | minimal effective dose at 3 mg/kg (Renal Hypertensive Rats): < 3 mg/kg; minimal effective dose at 30 mg/kg (Renal Hypertensive Rats): < 30 mg/kg; IC50 (AII receptor; Table 26): 680 nM
CCCc1nc(C(F)(F)C(F)(F)C(F)(F)F)c(CO)n1Cc1ccc(-c2ccccc2-c2nnn[nH]2)cc1 [Example 124K] |  |  |  | minimal effective dose at 3 mg/kg (Renal Hypertensive Rats): < 3 mg/kg; minimal effective dose at 30 mg/kg (Renal Hypertensive Rats): < 30 mg/kg; IC50 (AII receptor; Table 26): 13 nM
O=C(O)c1ccccc1-c1ccc(Cn2c(CO)cnc2SCC2CC2)cc1 [Example 124] | > 100 mg/kg | 1800 nM | < 10 mg/kg | 
